Data reported in PubChem BioAssay AID2060626 (Molecular Pharmacology Branch, DTP, NCI, 2025).

Test system: 168753-222-R-J1-PDC complex spheroid viability
Test: Anticancer human tumor 168753-222-R-J1-PDC patient-derived bladder carcinoma cell line growth inhibition [CLK]
Conditions: second compound 0.0316 µM; first compound 1 µM; stronger effect = lower value
How it was run: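 Patient-derived tumor cells grown as complex spheroids with HUVEC endothelial cells and mesenchymal stem cells, treated with drug combinations. Concentrations descend in half-log steps from near clinical Cmax, or from 10 microM if Cmax unknown.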
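Also: luminescence signal used as surrogate for viable cell amount; viability measured after seven days of drug exposure; 100% = DMSO vehicle control wells.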

Row | Compound | viability, T/C [%]
1 | O=C(c1cc(Cc2n[nH]c(=O)c3ccccc23)ccc1F)N1CCN(C(=O)C2CC2)CC1 + CNC(=O)c1ccc(Nc2nc(OC3CCCC3)c3c(-c4ccc5nc(C)oc5c4)c[nH]c3n2)c(OC)c1 | 118
2 | O=c1[nH]cc(F)c(=O)[nH]1 + CNC(=O)c1ccc(Nc2nc(OC3CCCC3)c3c(-c4ccc5nc(C)oc5c4)c[nH]c3n2)c(OC)c1 | 108

Same assay, conditions: second compound 0.0316 µM; first compound 3.16 µM; stronger effect = lower value

Row | Compound | viability, T/C [%]
3 | Nc1ccn(C2OC(CO)C(O)C2(F)F)c(=O)n1 (stereo unspecified) + CNC(=O)c1ccc(Nc2nc(OC3CCCC3)c3c(-c4ccc5nc(C)oc5c4)c[nH]c3n2)c(OC)c1 | 51.2
4 | O=C(c1cc(Cc2n[nH]c(=O)c3ccccc23)ccc1F)N1CCN(C(=O)C2CC2)CC1 + CNC(=O)c1ccc(Nc2nc(OC3CCCC3)c3c(-c4ccc5nc(C)oc5c4)c[nH]c3n2)c(OC)c1 | 114
5 | O=c1[nH]cc(F)c(=O)[nH]1 + CNC(=O)c1ccc(Nc2nc(OC3CCCC3)c3c(-c4ccc5nc(C)oc5c4)c[nH]c3n2)c(OC)c1 | 92.3

Same assay, conditions: second compound 0.0316 µM; first compound 10 µM; stronger effect = lower value

Row | Compound | viability, T/C [%]
6 | Nc1ccn(C2OC(CO)C(O)C2(F)F)c(=O)n1 (stereo unspecified) + CNC(=O)c1ccc(Nc2nc(OC3CCCC3)c3c(-c4ccc5nc(C)oc5c4)c[nH]c3n2)c(OC)c1 | 37.9
7 | O=C(c1cc(Cc2n[nH]c(=O)c3ccccc23)ccc1F)N1CCN(C(=O)C2CC2)CC1 + CNC(=O)c1ccc(Nc2nc(OC3CCCC3)c3c(-c4ccc5nc(C)oc5c4)c[nH]c3n2)c(OC)c1 | 95.5
8 | O=c1[nH]cc(F)c(=O)[nH]1 + CNC(=O)c1ccc(Nc2nc(OC3CCCC3)c3c(-c4ccc5nc(C)oc5c4)c[nH]c3n2)c(OC)c1 | 98.5

Same assay, conditions: second compound 0.1 µM; first compound 0.000316 µM; stronger effect = lower value

Row | Compound | viability, T/C [%]
9 | Cn1ncnc1[C@H]1c2n[nH]c(=O)c3cc(F)cc(c23)N[C@@H]1c1ccc(F)cc1 + CNC(=O)c1ccc(Nc2nc(OC3CCCC3)c3c(-c4ccc5nc(C)oc5c4)c[nH]c3n2)c(OC)c1 | 96.8

Same assay, conditions: second compound 0.1 µM; first compound 0.001 µM; stronger effect = lower value

Row | Compound | viability, T/C [%]
10 | Cn1ncnc1[C@H]1c2n[nH]c(=O)c3cc(F)cc(c23)N[C@@H]1c1ccc(F)cc1 + CNC(=O)c1ccc(Nc2nc(OC3CCCC3)c3c(-c4ccc5nc(C)oc5c4)c[nH]c3n2)c(OC)c1 | 93.6

Same assay, conditions: second compound 0.1 µM; first compound 0.00316 µM; stronger effect = lower value

Row | Compound | viability, T/C [%]
11 | CCc1c2c(nc3ccc(O)cc13)-c1cc3c(c(=O)n1C2)COC(=O)[C@]3(O)CC + CNC(=O)c1ccc(Nc2nc(OC3CCCC3)c3c(-c4ccc5nc(C)oc5c4)c[nH]c3n2)c(OC)c1 | 99.1
12 | Cn1ncnc1[C@H]1c2n[nH]c(=O)c3cc(F)cc(c23)N[C@@H]1c1ccc(F)cc1 + CNC(=O)c1ccc(Nc2nc(OC3CCCC3)c3c(-c4ccc5nc(C)oc5c4)c[nH]c3n2)c(OC)c1 | 91.7

Same assay, conditions: second compound 0.1 µM; first compound 0.01 µM; stronger effect = lower value

Row | Compound | viability, T/C [%]
13 | CCc1c2c(nc3ccc(O)cc13)-c1cc3c(c(=O)n1C2)COC(=O)[C@]3(O)CC + CNC(=O)c1ccc(Nc2nc(OC3CCCC3)c3c(-c4ccc5nc(C)oc5c4)c[nH]c3n2)c(OC)c1 | 87.4
14 | Cn1ncnc1[C@H]1c2n[nH]c(=O)c3cc(F)cc(c23)N[C@@H]1c1ccc(F)cc1 + CNC(=O)c1ccc(Nc2nc(OC3CCCC3)c3c(-c4ccc5nc(C)oc5c4)c[nH]c3n2)c(OC)c1 | 103

Same assay, conditions: second compound 0.1 µM; first compound 0.0316 µM; stronger effect = lower value

Row | Compound | viability, T/C [%]
15 | CCc1c2c(nc3ccc(O)cc13)-c1cc3c(c(=O)n1C2)COC(=O)[C@]3(O)CC + CNC(=O)c1ccc(Nc2nc(OC3CCCC3)c3c(-c4ccc5nc(C)oc5c4)c[nH]c3n2)c(OC)c1 | 87.8
16 | Cn1ncnc1[C@H]1c2n[nH]c(=O)c3cc(F)cc(c23)N[C@@H]1c1ccc(F)cc1 + CNC(=O)c1ccc(Nc2nc(OC3CCCC3)c3c(-c4ccc5nc(C)oc5c4)c[nH]c3n2)c(OC)c1 | 103
17 | Nc1ccn(C2OC(CO)C(O)C2(F)F)c(=O)n1 (stereo unspecified) + CNC(=O)c1ccc(Nc2nc(OC3CCCC3)c3c(-c4ccc5nc(C)oc5c4)c[nH]c3n2)c(OC)c1 | 88.4
18 | O=C(c1cc(Cc2n[nH]c(=O)c3ccccc23)ccc1F)N1CCN(C(=O)C2CC2)CC1 + CNC(=O)c1ccc(Nc2nc(OC3CCCC3)c3c(-c4ccc5nc(C)oc5c4)c[nH]c3n2)c(OC)c1 | 92.3
19 | O=c1[nH]cc(F)c(=O)[nH]1 + CNC(=O)c1ccc(Nc2nc(OC3CCCC3)c3c(-c4ccc5nc(C)oc5c4)c[nH]c3n2)c(OC)c1 | 92.3

Same assay, conditions: second compound 0.1 µM; first compound 0.1 µM; stronger effect = lower value

Row | Compound | viability, T/C [%]
20 | CCc1c2c(nc3ccc(O)cc13)-c1cc3c(c(=O)n1C2)COC(=O)[C@]3(O)CC + CNC(=O)c1ccc(Nc2nc(OC3CCCC3)c3c(-c4ccc5nc(C)oc5c4)c[nH]c3n2)c(OC)c1 | 50.8
21 | Cn1ncnc1[C@H]1c2n[nH]c(=O)c3cc(F)cc(c23)N[C@@H]1c1ccc(F)cc1 + CNC(=O)c1ccc(Nc2nc(OC3CCCC3)c3c(-c4ccc5nc(C)oc5c4)c[nH]c3n2)c(OC)c1 | 92.6
22 | Nc1ccn(C2OC(CO)C(O)C2(F)F)c(=O)n1 (stereo unspecified) + CNC(=O)c1ccc(Nc2nc(OC3CCCC3)c3c(-c4ccc5nc(C)oc5c4)c[nH]c3n2)c(OC)c1 | 75.7
23 | O=C(c1cc(Cc2n[nH]c(=O)c3ccccc23)ccc1F)N1CCN(C(=O)C2CC2)CC1 + CNC(=O)c1ccc(Nc2nc(OC3CCCC3)c3c(-c4ccc5nc(C)oc5c4)c[nH]c3n2)c(OC)c1 | 86.1
24 | O=c1[nH]cc(F)c(=O)[nH]1 + CNC(=O)c1ccc(Nc2nc(OC3CCCC3)c3c(-c4ccc5nc(C)oc5c4)c[nH]c3n2)c(OC)c1 | 94.8

Same assay, conditions: second compound 0.1 µM; first compound 0.316 µM; stronger effect = lower value

Row | Compound | viability, T/C [%]
25 | CCc1c2c(nc3ccc(O)cc13)-c1cc3c(c(=O)n1C2)COC(=O)[C@]3(O)CC + CNC(=O)c1ccc(Nc2nc(OC3CCCC3)c3c(-c4ccc5nc(C)oc5c4)c[nH]c3n2)c(OC)c1 | 48.8
26 | Nc1ccn(C2OC(CO)C(O)C2(F)F)c(=O)n1 (stereo unspecified) + CNC(=O)c1ccc(Nc2nc(OC3CCCC3)c3c(-c4ccc5nc(C)oc5c4)c[nH]c3n2)c(OC)c1 | 50.3
